Source: article PMC3390971 (Clinical Cancer Research, 2010)
Where “and” joins values, the source holds several entries; their conditions need not be identical. Equal values may be shown once. Read-outs that look alike come from different tables or passages of the source. Marks after values point to notes of the source that are not given here.

Tests used:
[1] = mouse; cited from earlier work
HT29 cells [2] = assay: Clonogenic cell killing in stirred single cell suspensions; type: cell-based, human; conditions: anoxia, mean ± SEM
[3] = Animal toxicity: maximum tolerated dose in mice; type: in vivo
[4] = cited from earlier work
HT29 cells [5] = conditions: cited from earlier work
[6] = Animal toxicity: maximum tolerated dose in rats; type: in vivo
[7] = cited from earlier work; remark: listed apart in the source
HT29 MCL [8] = test system: HT29 MCL
SiHa xenografts = assay: SiHa xenograft tumor regrowth assay with fractionated radiation; type: in vivo, CD-1 nude mice; conditions: for Radiation-induced tumor regrowth delay: 30 min before each of 2 Gy × 8
[9] = Mouse plasma protein binding; type: in vitro ADME; conditions: mean ± SEM
[10] = cited from earlier work; remark: listed apart in the source
[11] = Plasma pharmacokinetics in mice; conditions: male CD-1 nude mice, single i.p. dose at 75% of MTD
HT29 MCL [12] = assay: Diffusion in multicellular layers; conditions: higher than TPZ
[13] = test system: HT29, SiHa and H460 xenografts; assay: Excision; type: in vivo, CD-1 nude mice; conditions: three xenograft models, 75% of MTD
HT29 cells [14] = conditions: HT29 cell suspensions, mean ± SEM
8 human tumor cell lines = assay: In vitro growth inhibition; type: cell-based; conditions: 8 cell lines
HT29 cells [15] = assay: Oxygen dependence of cytotoxicity and metabolism in stirred cell suspensions; type: cell-based, human; conditions: mean ± SEM
[16] = cited from earlier work; remark: listed apart in the source
[17] = mouse, in vivo

Question: Which results are given for `Nc1n[n+]([O-])c2ccccc2[n+]1[O-]` [TPZ, tirapazamine, reference compound]?
Answer: θ, free fraction of drug in plasma in mice [1]: 100 ± 5.3 ^f %; γ, proportionality constant in PD model (anoxic clonogenic potency coefficient) (HT29 cells [2]): 2.41± 0.13 (72) ×10^−5 µM^−2; MTD at 4 days ([3]; CD-1 nu/nu, mouse, in vivo, ip): 75 µmol/kg; MTD at 28 days ([3]; male, CD-1 nu/nu, mouse, in vivo, ip): 178 µmol/kg; E(1) One electron reduction potential [4]: −456 ± 8 ^a mV; KO2, O2 concentration to halve anoxic cytotoxic potency (HT29 cells [5]): 1.21 ± 0.09 ^d µM; MTD at 28 days ([6]; both, Sprague-Dawley, rat, in vivo, ip): 178 µmol/kg; Log P, pH 7.4 (octanol:water partition coefficient) [7]: −0.34 ± 0.02 ^a; D, diffusion coefficient in HT29 MCLs and tumors (HT29 MCL [8]; human): 0.40 ± 0.02 (12) ×10^−6 cm^2s^−1

Question: Which “Radiation-induced tumor regrowth delay” value (SiHa xenografts; 176 µmol/kg/dose, p=0.0058 log rank test) does the source give for `[O-][n+]1nc(CCCN2CCOCC2)[n+]([O-])c2cc3c(cc21)CCC3` [SN30000] here?
Answer: highly significant increases

Question: And the “Activity of drug alone in tumor regrowth assay” value (SiHa xenografts; 263 µmol/kg/dose, 8-dose schedule, without radiation)?
Answer: not significantly active

Question: What about the “Radiation-induced tumor regrowth delay” value (SiHa xenografts; 263 µmol/kg/dose, p=0.0004 log rank test) of the same compound?
Answer: highly significant increases

Question: And the “θ, free fraction of drug in plasma in mice” value [9]?
Answer: 83 ± 1%

Question: And the “γ, proportionality constant in PD model (anoxic clonogenic potency coefficient)” value (HT29 cells [2])?
Answer: 5.34 ± 0.89 (13) ×10^−5 µM^−2

Question: And the “MTD for bi-daily dosing for 4 consecutive days (BID1-4)” value ([3]; i.p., 9 am and 3 pm, 4 consecutive days, CD-1 nude mice)?
Answer: 237 µmol/kg

Question: And the “Maximum tolerated dose (MTD)” value ([3]; single i.p. administration, male CD-1 nude mice)?
Answer: 275 mg/kg

Question: And the “MTD (molar dose) relative to TPZ” value ([3]; single i.p., male CD-1 nude mice, higher than TPZ)?
Answer: 4.2 fold

Question: What about the “E(1) One electron reduction potential” value [4] of the same compound?
Answer: −399 ± 8 ^c mV

Question: What about the “One-electron reduction potential difference (higher than TPZ)” value [4] of the same compound?
Answer: 57 mV

Question: And the “Solubility in culture medium at 37°C” value [10]?
Answer: 48.5 ^c mM

Question: And the “AUCp∞, area under the plasma (total drug) concentration-time curve extrapolated to infinity in mice” value [11]?
Answer: 79 µM·h

Question: And the “t½, plasma terminal half life in mice” value [11]?
Answer: 32 min and 32.1 min

Question: And the “DMCL relative to TPZ” value (HT29 MCL [12])?
Answer: 3 fold

Question: What about the “Therapeutic gain over TPZ with single dose radiation” value [13] of the same compound?
Answer: ~3 fold

Question: And the “kmet0, first order rate constant for prodrug metabolism under anoxia” value (HT29 cells [14])?
Answer: 1.53 ± 0.21 min^−1 and 1.53 ± 0.21 (8) min^−1

Question: And the “HCR (aerobic IC50 / anoxic IC50) compared across compounds” value (8 human tumor cell lines)?
Answer: consistently higher

Question: What about the “Potency under anoxia (hypoxic IC50) compared with TPZ” value (8 human tumor cell lines; 4 h exposure, anoxia) of the same compound?
Answer: consistently more potent than TPZ

Question: And the “KO2, O2 concentration to halve anoxic cytotoxic potency” value (HT29 cells [15])?
Answer: 1.14 ± 0.24 µM

Question: What about the “Calculated amine pKa” value [16] of the same compound?
Answer: 7.1 ^c

Question: What about the MTD ([6]; Sprague-Dawley rats, both sexes, single i.p. dose) of the same compound?
Answer: 316 µmol/kg

Question: What about the i.p. bioavailability [17] of the same compound?
Answer: 77%

Question: What about the “Log P, pH 7.4 (octanol:water partition coefficient)” value [7] of the same compound?
Answer: 0.50 ± 0.05 ^c

Question: What about the “D, diffusion coefficient in HT29 MCLs and tumors” value (HT29 MCL [8]) of the same compound?
Answer: 1.26 ± 0.11 (6) ×10^−6 cm^2s^−1
